Structures can show the parent of a compound that is named as a salt. Where two headings read alike, the source gives them in different places.
Assays:
[1] = target: T1, human PDE4B1 (Homo sapiens, UniProt Q07343); assay: cAMP HTRF assay to determine the activity of hPDE4B1; format: biochemical; conditions: read-out: PDE4B IC50
T1 construct: host or cells: Sf9 cells
Procedure: 1. Determination of the PDE4B IC50 Values with a cAMP HRTF® Assay to Determine the Activity of hPDE4B1
The inhibiting effect of the compounds on the enzyme activity of human PDE4B1 is measured by the quantification of 5′-AMP, which is formed from 3′,5′-adenosine monophosphate (cAMP). Human recombinant enzyme, expressed in Sf9 cells, and the HTRF (homogeneous time-resolved fluorescence) detection method are used in the assay.
The test compound or water (control) is mixed with the human recombinant PDE4B1 enzyme (4.8 U) in a buffer consisting of 44.4 mM tris-HCl, 5.28 mM MgCl2, 2.64 mM DTT and 0.044% Tween 20 (pH 7.8). After adding the cAMP enzyme substrate (final concentration 40 nM) the mixture is incubated for 30 minutes at room temperature. Then a fluorescence acceptor (Dye2 marked with cAMP), a fluorescence donor (anti-cAMP antibody marked with a europium cryptate) and the non-specific phosphodiesterase inhibitor IBMX (3-isobutyl-1-methylxanthine; final concentration 1 mM) are added. After 60 minutes the fluorescence transfer, which correlates with the amount of remaining cAMP, is measured with a microplate reader (Rubystar, BMG) at λex=337 nm, λem=620 nm and λεm=665 nm. The enzyme activity is calculated from the quotient formed from the measured signal at 665 nm and that at 620 nm. The result is expressed as the percentage inhibition of enzyme activity of the control (without PDE4 inhibitor) (literature: N. Saldou et al., Comparison of recombinant human PDE4 isoforms: interaction with substrate and inhibitors, Cell. Signal. Vol. 10, No. 6, 427-440, 1998). The enzyme is omitted for measurement of the basal control. The averaged results are set out in Table 5.

[2] = target: human recombinant PDE4D2 (Homo sapiens, UniProt Q08499); assay: cAMP HTRF assay to determine the activity of hPDE4D2; format: biochemical
Procedure: 2. Determination of the PDE4D-IC50 Values with a cAMP HRTF® Assay to Determine the Activity of hPDE4D2
The further procedure and evaluation are performed in exactly the same way as in the above description of the cAMP HTRF® assay for PDE4B.

[3] = human recombinant PDE4B1, cAMP 40 nM, averaged results (Table 5)
[4] = comparative experiments, re-synthesised prior-art compounds (Table 6)

T1 sequence (Q07343 whole entry): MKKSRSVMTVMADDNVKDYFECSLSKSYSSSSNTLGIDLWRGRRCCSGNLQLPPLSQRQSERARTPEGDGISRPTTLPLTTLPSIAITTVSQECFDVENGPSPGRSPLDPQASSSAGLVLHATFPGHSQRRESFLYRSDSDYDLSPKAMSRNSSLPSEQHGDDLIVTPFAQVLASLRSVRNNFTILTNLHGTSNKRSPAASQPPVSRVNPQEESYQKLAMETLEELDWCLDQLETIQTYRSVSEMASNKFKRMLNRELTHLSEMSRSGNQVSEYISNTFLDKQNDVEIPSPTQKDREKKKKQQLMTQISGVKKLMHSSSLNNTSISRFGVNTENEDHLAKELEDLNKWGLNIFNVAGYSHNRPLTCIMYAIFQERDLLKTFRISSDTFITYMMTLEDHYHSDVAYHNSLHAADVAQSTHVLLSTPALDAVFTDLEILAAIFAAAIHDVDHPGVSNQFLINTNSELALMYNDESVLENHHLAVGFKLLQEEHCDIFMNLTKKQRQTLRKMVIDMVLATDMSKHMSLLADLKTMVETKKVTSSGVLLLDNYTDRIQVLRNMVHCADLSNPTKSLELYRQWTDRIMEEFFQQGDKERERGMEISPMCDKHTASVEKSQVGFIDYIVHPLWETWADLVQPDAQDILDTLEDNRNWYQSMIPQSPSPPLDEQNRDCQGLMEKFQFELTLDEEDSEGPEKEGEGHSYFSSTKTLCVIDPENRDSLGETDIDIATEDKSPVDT
Sequence of human recombinant PDE4D2 (Q08499 303-809): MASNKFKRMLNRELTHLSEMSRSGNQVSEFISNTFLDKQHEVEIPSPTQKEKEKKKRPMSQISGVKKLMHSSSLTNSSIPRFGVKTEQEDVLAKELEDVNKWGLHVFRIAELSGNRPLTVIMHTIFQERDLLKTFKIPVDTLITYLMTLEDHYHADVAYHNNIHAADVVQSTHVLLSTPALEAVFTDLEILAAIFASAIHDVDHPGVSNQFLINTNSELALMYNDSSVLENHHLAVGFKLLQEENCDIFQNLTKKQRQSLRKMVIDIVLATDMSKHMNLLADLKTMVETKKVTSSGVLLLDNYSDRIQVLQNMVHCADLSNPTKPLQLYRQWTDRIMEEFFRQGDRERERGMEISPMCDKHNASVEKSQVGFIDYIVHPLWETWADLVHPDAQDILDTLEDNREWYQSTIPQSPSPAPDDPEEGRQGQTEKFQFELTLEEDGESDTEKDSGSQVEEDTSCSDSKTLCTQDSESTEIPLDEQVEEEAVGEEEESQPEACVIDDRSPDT

SMILES	IC50 [1, 3]	further results
O=C(O)Cc1ccc(Nc2nc(-c3ccc(Br)cc3)nc3c2CCC3)cc1 [Compound 1, 2-(4-(2-(4-Bromophenyl)-6,7-dihydro-5H-cyclopenta[d]pyrimidin-4-ylamino)phenyl)acetic acid]	0.66 µM	–
O=C(O)Cc1ccc(Nc2nc(-c3ccc(F)c(F)c3)nc3c2CCC3)cc1 [Compound 2, 2-(4-(2-(3,4-Difluorophenyl)-6,7-dihydro-5H-cyclopenta[d]pyrimidin-4-ylamino)phenyl)acetic acid]	0.19 µM	–
O=C(O)Cc1ccc(Nc2nc(-c3ccc4occc4c3)nc3c2CCC3)cc1 [Compound 2-1, 2-(4-(2-(Benzofuran-5-yl)-6,7-dihydro-5H-cyclopenta[d]pyrimidin-4-ylamino)phenyl)acetic acid]	0.74 µM	–
COc1ccc(-c2nc3c(c(Nc4ccc(CC(=O)O)cc4)n2)CCC3)cc1F [Compound 3, 2-(4-(2-(3-Fluoro-4-methoxyphenyl)-6,7-dihydro-5H-cyclopenta[d]pyrimidin-4-ylamino)phenyl)acetic acid]	0.12 µM	–
COc1ccc(-c2nc3c(c(Nc4ccc(CC(=O)O)cc4)n2)CCC3)cc1Cl [Compound 4, 2-(4-(2-(3-Chloro-4-methoxyphenyl)-6,7-dihydro-5H-cyclopenta[d]pyrimidin-4-ylamino)phenyl)acetic acid]	0.07 µM	–
O=C(O)Cc1ccc(Nc2nc(-c3ccc(OC(F)F)cc3)nc3c2CCC3)cc1 [Compound 5, 2-(4-(2-(4-(Difluoromethoxy)phenyl)-6,7-dihydro-5H-cyclopenta[d]pyrimidin-4-ylamino)phenyl)acetic acid]	0.49 µM	–
O=C(O)Cc1ccc(Nc2nc(-c3ccc(OC(F)(F)F)cc3)nc3c2CCC3)cc1 [Compound 6, 2-(4-(2-(4-(Trifluoromethoxy)phenyl)-6,7-dihydro-5H-cyclopenta[a]pyrimidin-4-ylamino)phenyl)acetic acid]	3.1 µM	–
CCOc1ccc(-c2nc3c(c(Nc4ccc(CC(=O)O)cc4)n2)CCC3)cc1 [Compound 7, 2-(4-(2-(4-Ethoxyphenyl)-6,7-dihydro-5H-cyclopenta[d]pyrimidin-4-ylamino)phenyl)acetic acid]	0.6 µM	–
COc1ccc(-c2nc3c(c(Nc4ccc(CC(=O)O)cc4)n2)CCC3)cc1 [Compound 8, 2-(4-(2-(4-Methoxyphenyl)-6,7-dihydro-5H-cyclopenta[d]pyrimidin-4-ylamino)phenyl)acetic acid as 2,2,2-trifluoroacetic acid addition salt]	0.38 µM	–
O=C(O)Cc1ccc(Nc2nc(-c3ccc(Cl)cc3)nc3c2CCC3)cc1 [Compound 9, 2-(4-(2-(4-Chlorophenol)-6,7-dihydro-5H-cyclopenta[d]pyrimidin-4-ylamino)phenyl)acetic acid as 2,2,2-trifluoroacetic acid addition salt]	0.88 µM	–
O=C(O)Cc1ccc(Nc2nc(-c3cccc(Cl)c3)nc3c2CCC3)cc1 [Compound 10, 2-(4-(2-(3-Chlorophenyl)-6,7-dihydro-5H-cyclopenta[d]pyrimidin-4-ylamino)phenyl)acetic acid]	0.3 µM	–
O=C(O)c1ccc(Nc2nc(-c3cccc(Cl)c3)nc3c2CCC3)cc1 [Compound 11, 4-(2-(3-Chlorophenyl)-6,7-dihydro-5H-cyclopenta[d]pyrimidin-4-ylamino)benzoic acid]	0.64 µM	–
O=C(O)Cc1ccc(Nc2nc(-c3cccc(Cl)c3)nc3c2CCCC3)cc1 [Compound 12, 2-(4-(2-(3-Chlorophenyl)-5,6,7,8-tetrahydroquinazolin-4-ylamino)phenyl)acetic acid]	0.55 µM	–
COc1ccc(-c2nc3c(c(Nc4ccc(C(=O)O)cc4)n2)CCC3)cc1F [Compound 13, 4-(2-(3-Fluoro-4-Methoxyphenyl)-6,7-Dihydro-5H-Cyclopenta[d]pyrimidin-4-ylamino)benzoic acid]	0.21 µM	melting point: > 260 °C
COc1ccc(-c2nc3c(c(Nc4ccc(C(=O)O)cc4)n2)CCC3)cc1Cl [Compound 14, 4-(2-(3-Chloro-4-methoxyphenyl)-6,7-dihydro-5H-cyclopenta[d]pyrimidin-4-ylamino)benzoic acid]	0.14 µM	melting point: > 260 °C
O=C(O)c1ccc(Nc2nc(-c3ccc(F)c(F)c3)nc3c2CCC3)cc1 [Compound 15, 4-(2-(3,4-Difluorophenyl)-6,7-dihydro-5H-cyclopenta[d]pyrimidin-4-ylamino)benzoic acid]	0.39 µM	melting point: > 260 °C
O=C(O)Cc1ccc(Nc2nc(-c3ccccc3)nc3c2CCC3)cc1 [Compound 16, 2-(4-(2-Phenyl-6,7-dihydro-5H-cyclopenta[d]pyrimidin-4-ylamino)phenyl)acetic acid]	0.69 µM	–
O=C(O)Cc1ccc(Nc2nc(-c3cccc(F)c3)nc3c2CCC3)cc1 [Compound 17, 2-(4-(2-(3-Fluorophenyl)-6,7-dihydro-5H-cyclopenta[d]pyrimidin-4-ylamino)phenyl)acetic acid]	0.21 µM	–
O=C(O)Cc1ccc(Nc2nc(-c3cccc(Br)c3)nc3c2CCC3)cc1 [Compound 18, 2-(4-(2-(3-Bromophenyl)-6,7-dihydro-5H-cyclopenta[d]pyrimidin-4-ylamino)phenyl)acetic acid]	0.22 µM	–
O=C(O)c1ccc(Nc2nc(-c3cccc(Cl)c3)nc3c2CCCC3)cc1 [Compound 19, 4-(2-(3-Chlorophenyl)-5,6,7,8-tetrahydroquinazoline-4-ylamino)benzoic acid]	2.14 µM	–
C=CCc1c(C)nc(-c2ccc(OC)cc2)nc1Nc1ccc(CC(=O)O)cc1 [Compound S1, reference compound]	–	IC50 [1, 4]: 3.6 µM; IC50 ([2]; comparative experiments, re-synthesised prior-art compounds (Table 6), read-out: PDE4D IC50): > 10 µM
C=CCc1c(C)nc(-c2ccccc2)nc1Nc1ccc(C(=O)O)cc1 [Compound S2, reference compound]	–	IC50 [1, 4]: 1.1 µM; IC50 [2]: 1.3 µM
